Data as given in US20230212129A1, “QUINAZOLINE DERIVATIVES USEFUL AS SELECTIVE HDAC6 INHIBITORS” (AnnJi Pharmaceutical Co., Ltd., priority 2020, published 2023).

Experiments:
[1] = system: bleomycin-induced pulmonary fibrosis; test: Bleomycin-induced pulmonary fibrosis model, lung histology (H&E); format: in vivo, mice
Description: The activities of compounds COMPOUND 2 and COMPOUND 33 in preventing and/or treating pulmonary fibrosis were examined using a bleomycin-induced pulmonary fibrosis model, a model that involves deactivated bleomycin hydrolase, elevated oxidative stress, and increased inflammatory cytokines. In the prevention model, mice were administered bleomycin intratracheally an hour in prior to the first oral administration of 30 mg/kg testing compounds. The treatment continued for 21 consecutive days, and mice were sacrificed to examine histological changes of lung tissues were analyzed by H&E staining to evaluate the degree of lung fibrosis. Additionally, the HDAC6 inhibitors, COMPOUND 2 and COMPOUND 33, were tested for their effect in aiding animal recovery from lung injury and pulmonary fibrosis post injury.

HDAC6 = target: T1, HDAC6 (Homo sapiens, UniProt Q9UBN7); test: HDAC6 activity, acetylated-AMC-labeled peptide substrate; format: biochemical
T1 construct: GST (N); host or cells: baculovirus expression system, Sf9 insect cells
T1 sequence (Q9UBN7 1-1215): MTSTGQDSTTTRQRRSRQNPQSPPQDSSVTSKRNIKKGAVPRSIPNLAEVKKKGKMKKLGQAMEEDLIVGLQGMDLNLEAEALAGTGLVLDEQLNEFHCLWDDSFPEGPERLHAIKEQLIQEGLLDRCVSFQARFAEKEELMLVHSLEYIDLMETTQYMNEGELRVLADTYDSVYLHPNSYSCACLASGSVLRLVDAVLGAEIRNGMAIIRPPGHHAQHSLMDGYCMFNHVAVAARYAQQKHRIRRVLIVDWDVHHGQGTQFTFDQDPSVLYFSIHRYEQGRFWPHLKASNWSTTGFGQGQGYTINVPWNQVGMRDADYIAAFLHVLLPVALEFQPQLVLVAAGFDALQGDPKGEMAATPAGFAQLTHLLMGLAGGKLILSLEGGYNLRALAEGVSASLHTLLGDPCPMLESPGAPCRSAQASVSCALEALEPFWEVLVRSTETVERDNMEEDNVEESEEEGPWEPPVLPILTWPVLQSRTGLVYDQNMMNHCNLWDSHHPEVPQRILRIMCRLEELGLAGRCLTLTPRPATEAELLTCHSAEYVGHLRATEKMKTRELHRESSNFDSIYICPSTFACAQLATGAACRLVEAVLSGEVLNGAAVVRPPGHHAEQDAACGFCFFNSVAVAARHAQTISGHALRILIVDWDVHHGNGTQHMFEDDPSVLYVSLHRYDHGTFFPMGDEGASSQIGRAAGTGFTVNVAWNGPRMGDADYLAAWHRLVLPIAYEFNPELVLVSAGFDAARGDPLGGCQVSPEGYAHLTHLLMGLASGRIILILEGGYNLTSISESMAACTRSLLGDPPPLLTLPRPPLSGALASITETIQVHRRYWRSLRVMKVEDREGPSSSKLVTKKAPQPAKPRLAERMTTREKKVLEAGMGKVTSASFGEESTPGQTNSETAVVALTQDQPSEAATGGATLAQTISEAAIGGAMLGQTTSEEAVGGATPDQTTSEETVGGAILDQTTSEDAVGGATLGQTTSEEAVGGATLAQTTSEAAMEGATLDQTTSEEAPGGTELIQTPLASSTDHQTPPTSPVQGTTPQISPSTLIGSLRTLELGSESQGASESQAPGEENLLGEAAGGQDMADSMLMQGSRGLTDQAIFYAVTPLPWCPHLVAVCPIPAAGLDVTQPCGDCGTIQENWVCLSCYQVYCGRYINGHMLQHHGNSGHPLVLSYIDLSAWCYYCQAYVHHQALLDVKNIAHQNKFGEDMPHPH
Description: (§1) The activities of HDAC 1 and 6 were measured by using an acetylated-AMC-labeled peptide substrate, a fluorogenic peptide from p53 residues 379-382 (RHIKKAc). The proteins involved in the assay are as the followings (1) Human HIDAC1 (Genflank Accession No. NM_004964): Full length with C-terminal GST tag, MW=79.9 kDa, expressed by baculovirus expression system in SP9 cells; and (2) Human HIDAC6 (Genflank Accession No. BC069243): Full length with N-terminal GST tag, MW=159 kDa, expressed by baculovirus expression system in Sf9 cells.

HDAC1 = target: T2, HDAC1 (Homo sapiens, UniProt Q13547); test: HDAC1 activity, acetylated-AMC-labeled peptide substrate; format: biochemical
T2 construct: GST (C); host or cells: baculovirus expression system, Sf9 insect cells (SP9 [sic])
T2 sequence (Q13547 whole entry): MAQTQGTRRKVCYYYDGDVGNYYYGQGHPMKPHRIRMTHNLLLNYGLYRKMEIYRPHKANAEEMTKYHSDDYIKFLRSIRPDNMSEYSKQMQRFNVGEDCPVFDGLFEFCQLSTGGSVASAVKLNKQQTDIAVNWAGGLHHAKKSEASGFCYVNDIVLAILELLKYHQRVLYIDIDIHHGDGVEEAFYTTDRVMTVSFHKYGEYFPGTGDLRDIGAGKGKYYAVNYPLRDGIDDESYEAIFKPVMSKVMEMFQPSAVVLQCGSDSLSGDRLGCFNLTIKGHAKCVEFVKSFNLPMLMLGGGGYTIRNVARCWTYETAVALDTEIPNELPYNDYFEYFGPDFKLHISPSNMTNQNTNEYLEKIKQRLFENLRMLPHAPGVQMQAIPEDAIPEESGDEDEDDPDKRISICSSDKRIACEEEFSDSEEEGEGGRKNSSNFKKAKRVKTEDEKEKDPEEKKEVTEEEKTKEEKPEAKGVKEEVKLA
Description: as §1

SMILES: CCc1nc2cc(F)c(/C=C/C(=O)NO)cc2c(=O)n1-c1c(C)cccc1C [Compound 2, (E)-3-(3-(2,6-dimethylphenyl)-2-ethyl-7-fluoro-4-oxo-3,4-dihydroquinazolin-6-yl)-N-hydroxyacrylamide]
- development of lung fibrosis ([1]; prevention model, 30 mg/kg oral, 21 consecutive days, FIG. 5): markedly decreased the development of lung fibrosis
- recovery from lung injury and pulmonary fibrosis post injury ([1]; treatment post injury): protective effect in pulmonary inflammatory response and pulmonary fibrosis
- HDAC6 selectivity (A)/(B) (HDAC6; HDAC1 IC50 / HDAC6 IC50): 2585
- IC50 (HDAC6; read-out: HDAC6 IC50 (B)): 2 nM
- IC50 (HDAC1): 5170 nM
